Test results taken from BindingDB's records for PubMed 40136287 (CSIR-Institute of Microbial Technology).

Target: Metallo-beta-lactamase type 2 (Klebsiella pneumoniae, UniProt C7C422)
Assay: Inhibition of NDM1 (unknown origin)

Chain of Metallo-beta-lactamase type 2 (C7C422 whole entry): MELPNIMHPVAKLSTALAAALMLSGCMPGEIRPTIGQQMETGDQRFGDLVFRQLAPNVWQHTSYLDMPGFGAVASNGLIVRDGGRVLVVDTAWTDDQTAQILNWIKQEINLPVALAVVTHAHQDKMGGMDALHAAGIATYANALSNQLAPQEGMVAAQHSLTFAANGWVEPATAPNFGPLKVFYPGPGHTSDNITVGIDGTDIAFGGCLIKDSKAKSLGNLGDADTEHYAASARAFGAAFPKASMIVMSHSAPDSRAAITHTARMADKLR

O=C(O)c1ccccn1
IC50: 17.1 µM
